Results: patent publication US8367702B2, “Quinolone derivative” (Astellas Pharma Inc., priority 2007, dated 2013)

What was measured:
[1] = Oral glucose tolerance test using mice; format: in vivo; conditions: Mus musculus, 0.5 h, 3 mg/kg orally 5 minutes prior to oral glucose loading (2 g/kg), 30 minutes after glucose loading, relative to control group, male ICR or C57BL/6 J mice, read-out: blood glucose-lowering rate
Excerpt: Test 2: Oral Glucose Tolerance Test Using Mice
This test is intended to evaluate an inhibitory action of a test compound on elevation of the blood glucose level after glucose loading, using mice. A test method is described hereinafter.
Male ICR or C57BL/6 J mice (6 weeks old, available from CLEA JAPAN, Inc.) pre-bred for one week were fasted overnight and used as test animals. A test compound was suspended in 10% PEG-60 Hydrogenated Castor Oil (HCO-60) aqueous solution, and was orally administered (3 mg/kg) to animals 5 minutes prior to oral glucose loading (2 g/kg). The control group was given a 10% HCO-60 aqueous solution. According to the following equation, a blood glucose-lowering rate (%) at 30 minutes after glucose loading was calculated for the test compound-treated group relative to the control group. An increase in the blood glucose level of the test compound-treated group and an increase in the blood glucose level of the control group were taken as A and B, respectively. Blood glucose-lowering rate (%)=100−[(A/B)×100]

[2] = system: NADPH oxidase; test: Inhibitory activity on ROS production derived from NADPH oxidase (HUVECs, nitrotetrazolium blue); format: cell-based, Human; conditions: 1.0 μM test compound, 25 mM glucose, 200 μM NADPH, 2 hours
Experimental: Test 1: Inhibitory Activity on ROS Production Derived from NADPH Oxidase
This activity was measured by using Human Umbilical Vein Endothelial Cells (HUVECs). The test method is as follows.
3×10^4 cells/well (100 μL) of HUVECs were seeded into a 96-well plate coated with collagen. The culture medium was MCDB131 medium containing 10% fetal bovine serum, 2 mM glutamine, 100 U/mL penicillin, 100 U/mL streptomycin, and 10 ng/mL recombinant human basic-FGF. On the next day, the culture medium was removed by an aspirator, and 100 μL/well of phosphate buffered saline containing 25 mM glucose, 200 μM NADPH, 0.2% nitrotetrazolium blue, and test compounds followed by culturing at 37° C. Nitrotetrazolium blue reacts with intracellularly produced ROS and turns into a water-insoluble blue pigment. After 2 hours, the supernatant was discarded, and the wells were washed three times with phosphate buffered physiological saline. Then, 100 μL/well of 90% DMSO water containing 0.04M sodium hydroxide was added to each well to completely dissolve the pigment, and an absorbance at a wavelength of 715 nm was measured. By taking an absorbance with no addition of a test compound as A, an absorbance […], and an absorbance with addition of glucose, NADPH and a test compound as C, ROS production inhibitory rate was calculated according to the following equation. Inhibition rate (%)=[…]
Abbreviation “Ex” in the table represents Example Compound No. which will follow, and abbreviation “Inh” represents an ROS production inhibition rate. It was confirmed that the compounds of the formula (I) of the present invention have an excellent ROS production inhibitory activity.

| Compound | inhibition in vivo at 3 mg/kg [1] | melting point | Inh(%) ROS production inhibition rate [2] |
| --- | --- | --- | --- |
| Cc1c(COc2cc(OCCC(C)(C)O)ccn2)[nH]c2ccccc2c1=O [Example 4, 2-({[4-(3-hydroxy-3-methylbutoxy)pyridin-2-yl]oxy}methyl)-3-methylquinolin-4(1H)-one] | 70 to 105% | 127 to 130 °C | 84.7 ± 2.1% |
| Cc1c(CO[C@H]2CC[C@H](NC(=O)CC(C)(C)O)CC2)[nH]c2ccccc2c1=O [Ex 248] | 89% | – | – |
| Cc1c(COCCN(C(=O)C2CCOCC2)C2CCCCC2)[nH]c2ccccc2c1=O [Ex 228] | – | – | 66.3 ± 2.1% |
| Cc1c(COc2cccc(N3CCOCC3=O)c2)[nH]c2ccccc2c1=O [Example 9, 3-methyl-2-{[3-(3-oxomorpholin-4-yl)phenoxy]methyl}quinolin-4(1H)-one] | – | 221 to 223 °C | 88.7 ± 1.5% |
| Cc1c(CCc2cc(OCC3CCOCC3)ccn2)[nH]c2ccccc2c1=O [Ex 184] | – | 212 to 215 °C | – |
| Cc1c(COC(=O)Nc2cccc(Cc3ccccc3)c2)[nH]c2ccccc2c1=O [Ex 285] | – | – | 67.3 ± 0.1% |
| COCCc1ccc(OCCCCOCc2[nH]c3ccccc3c(=O)c2C)cc1 [Ex 50] | – | – | 80.5 ± 2.5% |
| Cc1c(COc2cccc(N3CCC(O)CC3)c2)[nH]c2ccccc2c1=O [Ex 198] | – | – | 97.5 ± 6.1% |
| Cc1c(CCC2CCN(C(=O)C3CC3)CC2)[nH]c2ccccc2c1=O [Ex 209] | – | 222 to 224 °C | – |
| Cc1c(COc2cc(OCC3CCOCC3)ccn2)[nH]c2ccc(F)cc2c1=O [Ex 153] | 70 to 105% | – | – |
| CCOC(=O)N1CCC(CCc2[nH]c3ccccc3c(=O)c2C)CC1 [Ex 276] | – | 211 to 213 °C | 118.2 ± 4.0% |
| CCNC(=O)N[C@H]1CC[C@H](OCc2[nH]c3ccccc3c(=O)c2C)CC1 [Ex 224] | – | > 270 °C (dec.) | – |
| CC(=O)N1CCC(COc2cccc(OCc3[nH]c4ccccc4c(=O)c3C)c2)CC1 [Ex 98] | – | – | 101.5 ± 1.9% |
| Cc1c(COc2cc(OCCC3(O)CCOCC3)ccn2)[nH]c2ccccc2c1=O [Ex 179] | – | 189 to 190 °C | – |
| Cc1c(COc2ccc3c(c2)CCN(C(=O)CC(C)(C)O)C3)[nH]c2ccccc2c1=O [Ex 213] | – | 135 to 138 °C | – |
| Cc1c(COC(=O)NCCCc2ccccc2)[nH]c2ccccc2c1=O [Ex 284] | 70 to 105% | – | 64.2 ± 0.1% |
| Cc1c(COc2cccc(OCCc3ccncc3)c2)[nH]c2ccccc2c1=O [Ex 127] | – | – | 85.3 ± 2.9% |
| Cc1c(COCC(C)(C)COC(=O)N2CCOCC2)[nH]c2ccccc2c1=O [Ex 204] | – | 155 to 157 °C | – |
| Cc1c(COc2cccc(OCC3CCOCC3)c2)[nH]c2ccccc2c1=O [Example 2, 3-methyl-2-{[3-(tetrahydro-2H-pyran-4-ylmethoxy)phenoxy]methyl}quinolin-4(1H)-one] | – | 200 to 202 °C | 91.9 ± 5.2% |
| Cc1c(CCCCCOc2ccc(F)cc2F)[nH]c2ccc(F)cc2c1=O [Ex 28] | – | 201 to 203 °C | – |
| Cc1c(COCCCCOc2cccc3c2OC(C)(C)C3)[nH]c2ccccc2c1=O [Ex 52] | – | 139 to 140 °C | – |
| Cc1c(COCCCCOc2ccc(C#N)cc2)[nH]c2ccccc2c1=O [Ex 49] | – | – | 90.8 ± 5.2% |
| CCOC(=O)N[C@H]1CC[C@H](OCc2[nH]c3ccccc3c(=O)c2C)CC1 [Example 5, ethyl {trans-4-[(3-methyl-4-oxo-1,4-dihydroquinolin-2-yl]methoxy]cyclohexyl}carbamate] | – | 268 to 271 °C | – |
| Cc1c(COc2cc(OCCC3CCOCC3)ccn2)[nH]c2ccccc2c1=O [Example 8, 3-methyl-2-[({4-[2-(tetrahydro-2H-pyran-4-yl)ethoxy]pyridin-2-yl}oxy)methyl]quinolin-4(1H)-one] | 70 to 105% | 137 to 138 °C | 91.5 ± 4.7% |

| Compound | inhibition in vivo at 3 mg/kg [1] | melting point | Inh(%) ROS production inhibition rate [2] |
| --- | --- | --- | --- |
| CCS(=O)(=O)N1CCC(CCc2[nH]c3ccccc3c(=O)c2C)CC1 [Ex 279] | – | 225 to 228 °C | 98.9 ± 1.0% |
| CCCCCC(=O)N1CCN(Cc2[nH]c3ccccc3c(=O)c2C)CC1 [Ex 181] | – | 171 to 173 °C | – |
| Cc1c(COCCCCOCCC2CC2)[nH]c2ccccc2c1=O [Ex 53] | – | 155 to 157 °C | – |
| COC(C)(C)CCOc1ccnc(OCc2[nH]c3ccccc3c(=O)c2C)c1 [Ex 186] | 70 to 105% | – | – |
| Cc1c(COc2cccc(OCCC(C)(C)O)c2)[nH]c2ccccc2c1=O [Ex 141] | 70 to 105% | – | – |
| Cc1c(COc2cccc(N3CCC(C)(O)CC3)c2)[nH]c2ccccc2c1=O [Ex 199] | – | – | 93.1 ± 1.1% |
| Cc1cccc(CNC(=O)OCc2[nH]c3ccccc3c(=O)c2C)c1 [Ex 283] | – | 240 to 243 °C | 61.6 ± 1.7% |
| Cc1c(COc2cccc(N3CCC(OCCC(C)(C)O)CC3)c2)[nH]c2ccccc2c1=O [Ex 194] | – | 160 to 163 °C | – |
| Cc1c(COC(=O)NCC2CCCCC2)[nH]c2ccccc2c1=O [Ex 291] | – | – | 118.8 ± 0.4% |
| CCCCCCCS(=O)(=O)Cc1[nH]c2ccccc2c(=O)c1C [Example 19, 2-[(heptylsulfonyl)methyl]-3-methylquinolin-4(1H)-one] | – | > 310 °C (dec.) | 99.1 ± 0.0% |
| CCCCCC(=O)N1CCC(OCc2[nH]c3ccc(F)cc3c(=O)c2C)CC1 [Ex 128] | – | – | 77.7 ± 3.9% |
| Cc1c(CO[C@H]2CC[C@H](N3CCCC3=O)CC2)[nH]c2ccccc2c1=O [Example 7, 3-methyl-2-({[trans-4-(2-oxopyrrolidin-1-yl)cyclohexyl]oxy}methyl)quinolin-4(1H)-one] | – | 216 to 217 °C | – |
| Cc1c(COc2cccc(OCC3CCOCC3)n2)[nH]c2ccccc2c1=O [Ex 143] | – | 221 to 223 °C | – |
| Cc1c(COc2ncc(C(=O)NC3CCCC3)cn2)[nH]c2ccccc2c1=O [Ex 230] | – | > 231 °C (dec.) | – |
| Cc1c(CCC2CCN(C(=O)CC(C)(C)O)CC2)[nH]c2ccccc2c1=O [Ex 271] | – | 203 to 205 °C | – |
| COC(C)(C)CCOCCCCOCc1[nH]c2ccccc2c(=O)c1C [Ex 55] | – | – | 57.3 ± 2.3% |
| Cc1c(COCCC2(O)CCCCC2)[nH]c2ccccc2c1=O [Ex 205] | – | 125 to 127 °C | – |
| Cc1c(COC2CCOCC2)[nH]c2ccccc2c1=O [Ex 212] | – | 194 to 196 °C | – |
| Cc1c(COc2ccc3c(c2)N(C(=O)CC2CCOCC2)CCC3)[nH]c2ccc(F)cc2c1=O [Ex 166] | – | – | 84.3 ± 2.4% |
| Cc1c(COc2cc(OCCC(C)(C)O)cc(N3CCOCC3)c2)[nH]c2ccccc2c1=O [Example 10, 2-{[3-(3-hydroxy-3-methylbutoxy)-5-morpholin-4-ylphenoxy]methyl}-3-methylquinolin-4(1H)-one] | – | 189 to 190 °C | – |
| CCS(=O)(=O)N[C@H]1CC[C@H](OCc2[nH]c3ccccc3c(=O)c2C)CC1 [Example 6, N-{trans-4-[(3-methyl-4-oxo-1,4-dihydroquinolin-2-yl)methoxy]cyclohexyl}ethanesulfonamide] | – | 245 to 247 °C | 79.9 ± 1.2% |
| Cc1c(COc2ccc(CCC3(O)CCCC3)cc2)[nH]c2ccccc2c1=O [Example 3, 2-({4-[2-(1-hydroxycyclopentyl)ethyl]phenoxy}methyl)-3-methylquinolin-4(1H)-one] | – | 200 to 202 °C | – |
| Cc1c(CN2CCc3cc(OCC4CCOCC4)ccc3C2)[nH]c2ccccc2c1=O [Ex 180] | – | – | 69.5 ± 1.3% |
